As a reminder, the Ki is the equilibrium dissociation constant of an inhibitor or competing ligand from its target. Higher therefore signals a looser hold on the target.

Experimental findings from paper PMC10044159, “Inhibitory effects of sulfenimides on human and bovine carbonic anhydrase enzymes” (Journal of Enzyme Inhibition and Medicinal Chemistry, 2023) are described below.

For test [1], the target named is T1, hCA-I (Homo sapiens, UniProt P00915).
T1 construct: gene CA1
Briefly: CO2 hydratase assay (Wilbur-Anderson). It counts as biochemical. An excerpt: CO2 hydratase assay (Wilbur-Anderson) on hCA-I

Test [2] has as its target T2, hCA-II (Homo sapiens, UniProt P00918).
T2 construct: gene CA2
Briefly: CO2 hydratase assay (Wilbur-Anderson). Type of test: biochemical. The source says: CO2 hydratase assay (Wilbur-Anderson) on hCA-II

T1 sequence (P00915 2-261): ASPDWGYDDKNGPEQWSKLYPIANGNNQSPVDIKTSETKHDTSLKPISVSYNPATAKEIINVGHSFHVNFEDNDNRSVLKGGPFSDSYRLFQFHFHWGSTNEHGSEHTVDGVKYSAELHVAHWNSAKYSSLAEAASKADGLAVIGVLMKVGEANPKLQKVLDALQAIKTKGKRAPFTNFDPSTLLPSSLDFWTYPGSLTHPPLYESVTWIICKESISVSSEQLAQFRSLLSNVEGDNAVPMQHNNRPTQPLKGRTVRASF

Turning to `O=C1c2ccccc2C(=O)N1Sc1ccccc1` [1a], the Ki in test [1] came out at 0.0585 µM; in test [2], 0.0515 µM.

In the case of `COc1ccc(SN2C(=O)c3ccccc3C2=O)cc1` [1c], the Ki turned out to be 0.0379 µM in test [1] and 0.06 µM in test [2].

Turning to `O=C1c2ccccc2C(=O)N1Sc1ccc([N+](=O)[O-])cc1` [1d], the Ki in test [1] was found to be 0.119 µM; in test [2] it was 0.152 µM.

For `O=C1c2ccccc2C(=O)N1Sc1ccc(Cl)cc1` [1e], the figures for the Ki in test [1] and in test [2] were 0.0321 µM and 0.143 µM, respectively.

On to `O=C1c2ccccc2C(=O)N1Sc1ccc(Br)cc1` [1f], for which the Ki stood at 0.023 µM in test [1] and 0.044 µM in test [2].

In the case of `O=C1c2ccccc2C(=O)N1SCc1ccccc1` [1g], the inhibition constant (Ki) came out at 0.0408 µM in test [1] and 0.052 µM in test [2].

`O=C1c2ccccc2C(=O)N1SC1CCCCC1` [1h]: the Ki in test [1] came out at 0.0503 µM; in test [2], 0.0617 µM.

With `O=C1c2ccccc2C(=O)N1Sc1nc2ccccc2[nH]1` [1i], the results for the Ki in test [1] and in test [2] were 0.0254 µM and 0.0546 µM, respectively.
